Reference: patent US7067533B2, “Aminophenoxyacetamide derivatives and pharmaceutical composition containing thereof” (Daiichi Asubio Pharma Co., Ltd., priority 2000, dated 2006)

What was measured:
[1] = tested on: primary cultures (neurons) from cerebral cortices of fetal Wistar rats; test: Biological Test 1: neuroprotective effect against glutamate induced neuronal cell death (MTT); type: cell-based, rat; settings: Compound: 1 μM; glutamate 1 mM; control group = 100%
Description: Cultures were maintained at 37 C. in a 90% air/10% CO2 humidified incubator. Glutamate was added to the culture at day 4 to the final concentration of 1 mM. […] MTT was dissolved in phosphate buffered saline (PBS, pH 7.4) at 5 mg/ml and filtered to sterilize and remove a small amount of insoluble residue present in some batches of MTT, and added to the cultures at a final concentration of 0.5 mg/ml.
The test compounds (1 μM) was added 24 hrs prior to glutamate treatment and simultaneously with glutamate.
Survival rate of living cells (%) =[(test compound group—glutamic acid treated group)÷(control group—glutamic acid treated group)]×100

[2] = tested on: cerebral edema (water content of cerebral hemisphere), Wistar rats; test: Biological Test 5: cerebral edema suppressing effect; type: in vivo; settings: iv, 144 h, rat, post-TBI day 6, read-out: Cerebral edema suppressing rate (%); for inhibition in vivo at 3 mg/kg: 3 mg/kg intravenously just after the operation; for inhibition in vivo at 1 mg/kg: 1 mg/kg intravenously just after the operation
Description: Adult male Wistar rats weighing 210–230 g were used in the present study and housed in an artificially controlled environment with 12-hour light/dark cycle. Animals were anesthetized with pentobarbital sodium (50 mg/kg of body weight, i.p., Nembutal, Dinabbott, Japan) and placed in a stereotaxic apparatus. The skull was exposed and a hole was made on the parietal bone; 1.5 mm posterior and 0.8 mm lateral to the bregma. All procedures were performed under a surgery microscope to avoid excess irritation to the meninges and the underlying brain. A brass screw with a blunt tip (1.0 mm in diameter and 3.0 mm in length, Biomedica, Japan) was inset in the hole. The screw tip protruding intracranially was approximately 2.5 mm, which stuck into the parietal part of the right cerebrum through the meninges. In sham-operated rats, scalp was closed without attaching a screw to the hole. After surgery, all rats were kept in their original dens until sacrifice. Rats were allowed to feed chow and water ad libitum.
Under anesthesia the rat cerebral hemispheres of the target were processed for water content on post-TBI day 6 (n=6). The cerebral hemispheres dissected out were weighed, dried for 24 hours at 110 degree (Celsius) and then weighed again. The subtracted amount of the wet and dry weights was regarded as tissue water of the target, and utilized for the analysis of the cerebral edema.
The water content was calculated by using the following formula:
Water content (%) =[(wet weight of hemisphere—dry weight of hemisphere)/wet weight of hemisphere]×100
The test compounds were intravenously administered just after the operation via tail vein of the rats.

CalbindinD-28k = test: Biological Test 3: CalbindinD-28k inducing effect (western blot); type: cell-based, rat; settings: control (none-treated) = 100
Description: Test compounds were added 5 days after initiation of the incubation, and after 7 days of incubation, the protein was extracted with homogenized buffer solution [containing 20 mm of Tris-HCl (pH=7.4), 1 mM of EDTA, and 0.1 mM of phenylmethyl-sulfonyl fluoride].
In the table, the amount of induced CalbindinD-28k of the control group (none-treated group) was 4indicated as 100 percents.

[3] = tested on: primary cultures (neurons) from cerebral cortices of fetal Wistar rats; test: Biological Test 4: neuroprotective inhibiting effect by calbindin antisense oligonucleotide (MTT); type: cell-based, rat; settings: 300 μM glutamic acid
[4] = tested on: primary cultures (neurons) from cerebral cortices of fetal Wistar rats; test: Biological Test 2: antagonism of the neuroprotective effect by MTA treatment (MTT); type: cell-based, rat; settings: 0.75 mM MTA added 30 minutes before test compound, glutamate
Description: This biological test is performed to determine whether the neuroprotective effect of the test compounds is due to the activation of receptors of physiological active substances or not, by using antagonistic test for neutralizing antibody and Inhibitor for FGF, NT-3, NT-4/5, BDNF, IGF-I/II, NGF, PDGF and estrogen, respectively.
Chem., 268, 4244 (1993)]. Therefore, the neuroprotective effect of the test compounds is inhibited by treatment of MTA, this effect is depended by the signal transfer effect through the phosphorylation of FGF receptor.
The inhibitors of the various kinds of receptor were dissolved in the optimum concentration, and MTA was dissolved in the concentration of 7.5 mM, just before the using. 30 minutes before the treatment of the test compounds, the optimum concentration of each inhibitors or 0.75 mM of MTA was added, and the neuroprotective effect of the test compounds was determined by mean of MTT method.

| SMILES | Survival Rate (%) (Compound: 1 μl) [1] | inhibition in vivo at 3 mg/kg [2] | Amount of induced CalbindineD-28k (% vs. control) (Compound: 1 μM) (CalbindinD-28k) | Survival Rate (%) [antisense (+): 5 μM] ([3]; 0.1 μM) | Survival Rate (%) [antisense (−)] ([3]; 0.1 μM) | Survival Rate (%) [antisense (+): 5 μM] ([3]; 1 μM) | Survival Rate (%) [antisense (−)] ([3]; 1 μM) | Survival Rate (%) (Compound: 1 μl & MTA treatment) [4] | inhibition in vivo at 1 mg/kg [2] |
| --- | --- | --- | --- | --- | --- | --- | --- | --- | --- |
| Cc1c(C)c(OCC(=O)N(C)C2CCN(CCc3ccccc3)CC2)c(C)c(C)c1N [Compound 6, 2-(4-Amino-2,3,5,6-tetramethylphenoxy)-N-methyl-N-(1-phenethyl-4-piperidinyl)acetamide] | 54% | 24.9% | 163 % vs. control | 30% | 103% | 34% | 108% | 25% |  |
| Cc1c(C)c(OC(C)C(=O)N(C)C2CCN(CCN3CCOCC3)CC2)c(C)c(C)c1N (centres unmarked) [Compound 25, 2-(4-Amino-2,3,5,6-tetramethylphenoxy)-N-methy-N-{1-[2-(4-morpholinyl)ethyl]-4-piperidinyl}proanamide] | 87% |  |  |  |  |  |  | 16% | 19.1% |
| Cc1c(C)c(OCC(=O)N(C)C2CCN(CC3CC3)CC2)c(C)c(C)c1N [Compound 12, 2-(4-Amino-2,3,5,6-tetramethylphenoxy)-N-(1-cyclo-propylmethyl-4-piperidinyl)-N-methylacetamide] | 54% | 14.7% |  |  |  |  |  | 33% |  |
| Cc1c(C)c(OCC(=O)N(C)C2CCN(C(=O)c3ccccc3)CC2)c(C)c(C)c1N [Compound 8, 2-(4-Amino-2,3,5,6-tetramethylphenoxy)-N-(1-benzoyl-4-piperidinyl)-N-methylacetamide] | 78% |  |  |  |  |  |  | 24% | 14% |
| CCCCN1CCC(N(C)C(=O)C(C)Oc2c(C)c(C)c(N)c(C)c2C)CC1 (centres unmarked) [Compound 24, 2-(4-Amino-2,3,5,6-tetramethylphenoxy)-N-(1-butyl-4-piperidinyl)-N-methylpropanamide] | 61% |  |  |  |  |  |  | 22% | 10.6% |
| Cc1c(C)c(OCC(=O)N(C)C2CCN(Cc3ccc(C#N)cc3)CC2)c(C)c(C)c1N [Compound 18, 2-(4-Amino-2,3,5,6-tetramethylphenoxy)-N-[1-(4-cyano-benzyl)-4-piperidinyl]-N-methylacetamide] | 91% |  |  |  |  |  |  | 57% | 22.1% |
